Each compound was assayed against T1, AMPA receptor (human GluR1 flip/stargazin expressed in CHO-K1 cells) (Homo sapiens, UniProt P42261) (assay: AMPA receptor function enhancing activity using calcium influx as index). Conditions: test compound 30 μM with 3 mM glutamic acid, change in fluorescence level in 3 min, 100% = 3 mM glutamic acid + 300 μM cyclothiazide, 0% = 3 mM glutamic acid only.
T1 construct: expressed in transfected cells; host or cells: CHO-K1
Type: cell-based
Excerpt: Human GluR1 flip cDNA was amplified by PCR using forward primer […] (SEQ ID NO: 1) and reverse primer […] (SEQ ID NO: 2) artificially synthesized using human brain-derived cDNA (BD Bio science) as a template. The amplified product was digested with restriction enzymes EcoRI, NotI (TAKARA SHUZO CO. LTD.), and incorporated into the same site of pcDNA3.1(+) (Invitrogen) to construct pcDNA3.1(+)/human GluR1 flip gene. Human stargazin cDNA was amplified by PCR using forward primer […] (SEQ ID NO: 3) and reverse primer […] (SEQ ID NO: 4) artificially synthesized using human hippocampus cDNA as a template. The amplified product was digested with restriction enzymes XhoI, BamHI (TAKARA SHUZO CO. LTD.), and incorporated into the same site of pcDNA3.1(−) (Invitrogen) to construct pcDNA3.1 Zeo(−)/human stargazin gene.
CHO-K1 cells passaged in a culture medium (Ham's F12 medium (Invitrogen) added with 10% inactivated fetal bovine serum (Morgate) and penicillin, streptomycin (Invitrogen)) were detached with 0.05% trypsin, 0.53 mM EDTA (Invitrogen) diluted with D-PBS(−). The detached cells were suspended in a culture medium, and recovered by a centrifugation operation at 1,000 rpm. The recovered cells were suspended again in D-PBS(−), and added to a 0.4 cm electroporation cuvette (BioRad). pcDNA3.1(+)/human GluR1 flip gene (5 μg) and pcDNA3.1 Zeo(−)/human stargazin gene (15 μg) were added, and the mixture was introduced into CHO-K1 cells using Gene Pulser II (BioRad) under the conditions of 950 μFd, […]. The introduced cells were cultured overnight in a culture medium and, the next day, plated in a 96 well plate at 250 cells/well using a selection medium (culture medium added with Zeocin (Invitrogen) to 250 μg/mL). Clones showing drug resistance were selected, and GluR1 flip/stargazin expressing clones were selected by an assay method using calcium influx as an index as shown below.
CHO-K1/GluR1 flip/stargazin expressing cells were plated on a 96 well black transparent bottom plate (Costar) at 2×10^4 cells/well, and cultured in a 37° C., CO2 incubator (SANYO Electric Co., Ltd.) for 2 days. The medium in the cell plate was removed, and assay buffer A (D-MEM (Invitrogen), 0.1% BSA (Serogical Protein), 20 mM HEPES (Invitrogen)) was added at 50 μL/well. A calcium indicator (Calcium 4 Assay Kit, Invitrogen) added with 2.5 mM probenecid (Invitrogen) was added at 50 μL/well and the well was left standing in 37° C., CO2 incubator for 1 hr. The cell plate was set in CellLux (PerkinElmer), a mixture (50 μL) of 9 mM glutamic acid diluted with assay buffer B (HBSS (Invitrogen), 0.1% BSA, 20 mM HEPES) (final concentration 3 mM) and a test compound (test compound concentration 30 μM) was added, and the amount of change in fluorescence level in 3 min was measured. In the definition here, the amount of change in fluorescence level of well added with glutamic acid at final concentration 3 mM and 300 μM cyclothiazide (TOCRIS) is 100%, the amount of change in fluorescence level of well added only with glutamic acid at final concentration 3 mM is 0%, and the compound activity was calculated according to the following formula. activity(%)=(X−C)/(T−C)×100 T: amount of change in fluorescence level of well added with glutamic acid at final concentration 3 mM and 300 μM cyclothiazide C: amount of change in fluorescence level of well added only with glutamic acid at final concentration 3 mM X: amount of change in fluorescence level of well added with test compound

T1 sequence (P42261 19-906 isoform P42261-2 limits assumed): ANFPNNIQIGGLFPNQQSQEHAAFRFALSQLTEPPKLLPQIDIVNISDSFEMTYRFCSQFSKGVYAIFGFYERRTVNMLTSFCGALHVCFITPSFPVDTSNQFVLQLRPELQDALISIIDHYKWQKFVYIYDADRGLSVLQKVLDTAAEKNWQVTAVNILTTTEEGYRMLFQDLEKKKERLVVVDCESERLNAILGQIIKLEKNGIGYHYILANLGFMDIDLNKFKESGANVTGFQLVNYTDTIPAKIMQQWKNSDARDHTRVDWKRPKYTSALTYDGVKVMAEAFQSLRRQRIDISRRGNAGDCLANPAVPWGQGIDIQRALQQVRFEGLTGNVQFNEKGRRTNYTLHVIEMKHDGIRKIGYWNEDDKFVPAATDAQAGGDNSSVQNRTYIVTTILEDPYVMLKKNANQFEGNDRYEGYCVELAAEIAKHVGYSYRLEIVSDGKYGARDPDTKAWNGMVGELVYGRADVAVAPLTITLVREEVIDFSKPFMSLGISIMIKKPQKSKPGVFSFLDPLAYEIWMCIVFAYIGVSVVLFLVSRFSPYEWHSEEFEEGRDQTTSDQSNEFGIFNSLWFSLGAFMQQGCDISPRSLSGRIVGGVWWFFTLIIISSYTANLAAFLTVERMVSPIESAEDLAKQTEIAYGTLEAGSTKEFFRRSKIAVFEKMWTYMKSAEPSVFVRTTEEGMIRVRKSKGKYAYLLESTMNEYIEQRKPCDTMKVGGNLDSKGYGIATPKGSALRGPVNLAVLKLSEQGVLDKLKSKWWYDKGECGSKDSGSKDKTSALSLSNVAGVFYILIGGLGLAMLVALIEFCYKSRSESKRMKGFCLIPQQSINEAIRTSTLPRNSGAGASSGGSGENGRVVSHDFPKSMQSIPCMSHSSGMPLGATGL
T1 sequence (Q9Y698 whole entry partner): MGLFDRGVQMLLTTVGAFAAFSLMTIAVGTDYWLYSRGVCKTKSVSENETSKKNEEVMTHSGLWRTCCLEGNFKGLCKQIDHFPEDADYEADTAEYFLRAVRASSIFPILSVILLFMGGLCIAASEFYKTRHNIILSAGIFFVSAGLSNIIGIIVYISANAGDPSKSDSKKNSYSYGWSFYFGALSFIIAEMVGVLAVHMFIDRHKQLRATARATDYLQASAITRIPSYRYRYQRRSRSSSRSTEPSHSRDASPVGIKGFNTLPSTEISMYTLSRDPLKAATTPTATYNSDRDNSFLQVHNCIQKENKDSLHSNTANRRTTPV

| Structure (SMILES) | activity (%) |
| --- | --- |
| CC1CC(c2ccc(Oc3cccc(C(C)(F)F)c3)cc2)C2=NS(=O)(=O)CCN2C1 (racemic) [Example 172, 9-{4-[3-(1,1-difluoroethyl)phenoxy]phenyl}-7-methyl-3,4,6,7,8,9-hexahydropyrido[2,1-c][1,2,4]thiadiazine 2,2-dioxide] | 74 |
| CC1CC(c2ccc(Oc3cccc(C(C)(F)F)c3)cc2)C2=NS(=O)(=O)CCN2C1 (racemic) [Example 173, 9-{4-[3-(1,1-difluoroethyl)phenoxy]phenyl}-7-methyl-3,4,6,7,8,9-hexahydropyrido[2,1-c][1,2,4]thiadiazine 2,2-dioxide] | 68 |

Same assay, conditions: test compound 30 μM with glutamic acid final 3 mM, change in fluorescence in 3 min, 100% = 3 mM glutamic acid + 300 μM cyclothiazide, 0% = 3 mM glutamic acid only

| Structure (SMILES) | activity (%) |
| --- | --- |
| CCC(C)c1ccc(NC(=O)C2=NC=CN3CCS(=O)(=O)N=C23)cc1 (centres unmarked) [Example 1, N-[4-(1-methylpropyl)phenyl]-3,4-dihydropyrazino[2,1-c][1,2,4]thiadiazine-9-carboxamide 2,2-dioxide] | 66 |
| O=C(Nc1ccc(C2CC2)cc1)C1=CC=CN2CCS(=O)(=O)N=C12 [Example 4, N-(4-cyclopropylphenyl)-3,4-dihydropyrido[2,1-c][1,2,4]thiadiazine-9-carboxamide 2,2-dioxide] | 85 |
| Cc1nc2cc(OC3=CC=CN4CCS(=O)(=O)N=C34)ccc2s1 [Example 24, 9-[(2-methyl-1,3-benzothiazol-5-yl)oxy]-3,4-dihydropyrido[2,1-c][1,2,4]thiadiazine 2,2-dioxide] | 78 |
| CC(C)c1ccc(CCC2=CC=CN3CCS(=O)(=O)N=C23)cc1 [Example 25, 9-{2-[4-(1-methylethyl)phenyl]ethyl}-3,4-dihydropyrido[2,1-c][1,2,4]thiadiazine 2,2-dioxide] | 98 |
| CC(C)c1ccc(C(=O)NC2=CC=CN3CCS(=O)(=O)N=C23)cc1 [Example 37, N-(2,2-dioxido-3,4-dihydropyrido[2,1-c][1,2,4]thiadiazin-9-yl)-4-(1-methylethyl)benzamide] | 95 |
| O=S1(=O)CCN2CCCC(c3ccc(Oc4ccccc4)cc3)C2=N1 (centres unmarked) [Example 43, 9-(4-phenoxyphenyl)-3,4,6,7,8,9-hexahydropyrido[2,1-c][1,2,4]thiadiazine 2,2-dioxide] | 81 |
| O=S1(=O)CCN2C=CC=C(c3ccc4ccccc4c3)C2=N1 [Example 46, 9-naphthalen-2-yl-3,4-dihydropyrido[2,1-c][1,2,4]thiadiazine 2,2-dioxide] | 80 |
| CC(C)c1ccc(/C=C/C2=CC=CN3CCS(=O)(=O)N=C23)cc1 [Example 51, 9-{(E)-2-[4-(1-methylethyl)phenyl]ethenyl}-3,4-dihydropyrido[2,1-c][1,2,4]thiadiazine 2,2-dioxide] | 87 |
| CC(C)c1ccc(COC2=CC=CN3CCS(=O)(=O)N=C23)cc1 [Example 52, 9-{[4-(1-methylethyl)benzyl]oxy}-3,4-dihydropyrido[2,1-c][1,2,4]thiadiazine 2,2-dioxide] | 67 |
| O=S1(=O)CCN2CCCC(c3ccc(-c4ccccc4)s3)C2=N1 (centres unmarked) [Example 57, 9-(5-phenylthiophen-2-yl)-3,4,6,7,8,9-hexahydropyrido[2,1-c][1,2,4]thiadiazine 2,2-dioxide] | 86 |
| COc1ccc2ccc(OC3CCCN4CCS(=O)(=O)N=C34)cc2c1 (centres unmarked) [Example 60, 9-[(7-methoxynaphthalen-2-yl)oxy]-3,4,6,7,8,9-hexahydropyrido[2,1-c][1,2,4]thiadiazine 2,2-dioxide] | 63 |
| O=S1(=O)CCN2C=CC=C(c3ccc(OC4CC4)cc3)C2=N1 [Example 70, 9-[4-(cyclopropyloxy)phenyl]-3,4-dihydropyrido[2,1-c][1,2,4]thiadiazine 2,2-dioxide] | 86 |
| CCC(CC)Oc1ccc(C2=CC=CN3CCS(=O)(=O)N=C23)cc1 [Example 72, 9-[4-(1-ethylpropoxy)phenyl]-3,4-dihydropyrido[2,1-c][1,2,4]thiadiazine 2,2-dioxide] | 80 |
| O=S1(=O)CCN2C=CC=C(c3ccc(N4CCCC4)cc3)C2=N1 [Example 80, 9-(4-pyrrolidin-1-ylphenyl)-3,4-dihydropyrido[2,1-c][1,2,4]thiadiazine 2,2-dioxide] | 88 |
| O=S1(=O)CCN2C=CC=C(c3ccc(OCc4cccc(F)c4)cc3)C2=N1 [Example 82, 9-{4-[(3-fluorobenzyl)oxy]phenyl}-3,4-dihydropyrido[2,1-c][1,2,4]thiadiazine 2,2-dioxide] | 65 |
| O=S1(=O)CCN2CCCC(c3ccc(OCc4cccc(F)c4)cc3)C2=N1 (centres unmarked) [Example 83, 9-{4-[(3-fluorobenzyl)oxy]phenyl}-3,4,6,7,8,9-hexahydropyrido[2,1-c][1,2,4]thiadiazine 2,2-dioxide] | 57 |
| O=S1(=O)CCN2C=CC=C(c3ccc(Oc4cccc(Cl)c4)cc3)C2=N1 [Example 85, 9-[4-(3-chlorophenoxy)phenyl]-3,4-dihydropyrido[2,1-c][1,2,4]thiadiazine 2,2-dioxide] | 84 |
| O=S1(=O)CCN2CCCC(c3ccc(Oc4ccccc4C(F)(F)F)cc3)C2=N1 (centres unmarked) [Example 86, 9-{4-[2-(trifluoromethyl)phenoxy]phenyl}-3,4,6,7,8,9-hexahydropyrido[2,1-c][1,2,4]thiadiazine 2,2-dioxide] | 67 |
| O=S1(=O)CCN2C=CC=C(c3ccc(O)cc3)C2=N1 [Example 87, 4-(2,2-dioxido-3,4-dihydropyrido[2,1-c][1,2,4]thiadiazin-9-yl)phenol] | 51 |
| O=S1(=O)CCN2C=CC=C(c3ccc(OC4CCCCCC4)cc3)C2=N1 [Example 88, 9-[4-(cycloheptyloxy)phenyl]-3,4-dihydropyrido[2,1-c][1,2,4]thiadiazine 2,2-dioxide] | 75 |
| O=S1(=O)CCN2C=C(F)C=C(c3ccc(OC4CCCCC4)cc3)C2=N1 [Example 89, 9-[4-(cyclohexyloxy)phenyl]-7-fluoro-3,4-dihydropyrido[2,1-c][1,2,4]thiadiazine 2,2-dioxide] | 85 |
| COc1cccc(Oc2ccc(C3=CC=CN4CCS(=O)(=O)N=C34)cc2)c1 [Example 90, 9-[4-(3-methoxyphenoxy)phenyl]-3,4-dihydropyrido[2,1-c][1,2,4]thiadiazine 2,2-dioxide] | 78 |
| O=S1(=O)CCN2C=CC=C(c3ccc(OC4CCC4)cc3)C2=N1 [Example 91, 9-[4-(cyclobutyloxy)phenyl]-3,4-dihydropyrido[2,1-c][1,2,4]thiadiazine 2,2-dioxide] | 81 |
| O=S1(=O)CCN2C=CN=C(c3ccc(OC4CCCCC4)nc3)C2=N1 [Example 94, 9-[6-(cyclohexyloxy)pyridin-3-yl]-3,4-dihydropyrazino[2,1-c][1,2,4]thiadiazine 2,2-dioxide] | 71 |
| O=S1(=O)CCN2CCCC(c3ccc(-c4ccccc4)c(F)c3)C2=N1 (centres unmarked) [Example 96, 9-(2-fluorobiphenyl-4-yl)-3,4,6,7,8,9-hexahydropyrido[2,1-c][1,2,4]thiadiazine 2,2-dioxide] | 74 |
| O=S1(=O)CCN2CCCC(c3ccc(-c4ccccc4)c(F)c3)C2=N1 (centres unmarked) [Example 97, 9-(2-fluorobiphenyl-4-yl)-3,4,6,7,8,9-hexahydropyrido[2,1-c][1,2,4]thiadiazine 2,2-dioxide] | 86 |
| COc1cccc(Oc2ccc(C3CCCN4CCS(=O)(=O)N=C34)cc2)c1 (centres unmarked) [Example 98, 9-[4-(3-methoxyphenoxy)phenyl]-3,4,6,7,8,9-hexahydropyrido[2,1-c][1,2,4]thiadiazine 2,2-dioxide] | 71 |
